Results published in patent publication US6933302B2, “Nitrogen-based homo-camptothecin derivatives” (California Pacific Medical Center, priority 2002, dated 2005).

System: VM46 cells
Assay: Cell colony formation assay
Type: cell-based
Conditions: 72 hours drug incubation at 37° C., colonies counted after 8 days
Procedure: This example provides directions for growing cells and testing compounds of the invention for their effect on the growth of the cells. All cells can be purchased from DCTDC Tumor Repository, NCI, NIH.
Cell Colony Formation Assay
Five hundred cells (VM46) are plated in 60 mm Petri dishes containing 2.7 ml of medium (modified McCoy's 5a medium containing 10% fetal bovine serum and 100 units/ml penicillin and […]). The cells are incubated in a CO2 incubator at 37° C. for 5 hours for attachment to the bottom of Petri dishes. Drugs are made fresh in medium at ten times the final concentration, and then 0.3 ml of this stock solution is added to the 2.7 ml of medium in the dish. The cells are then incubated with drugs for 72 hours at 37° C. At the end of the incubation the drug-containing media are decanted, the dishes are rinsed with 4 ml of Hank's Balance Salt Solution (HBSS), 5 ml of fresh medium is added, and the dishes are returned to the incubator for colony formation. The cell colonies are counted using colony counter after incubation for 8 days for VM46 cells. Cell survival (%) is calculated .
Values of ID50 (the drug concentration producing 50% inhibition of colony formation) may be determined for each tested compound. Results are shown in Table I for hCPT as a compound of this invention taught in Example 16.

Compound | Value of ID50 (drug concentration producing 50% inhibition of colony formation)
CCC1(OC(=O)CCN2CCCCC2)CC(=O)OCc2c1cc1n(c2=O)Cc2cc3ccccc3nc2-1 (centres unmarked) [Example 021219, Homocamptothecin-20-O ester of 1-piperidine Propionic Acid] | 3.5 NM
CC[C@@]1(O)CC(=O)OCc2c1cc1n(c2=O)Cc2cc3ccccc3nc2-1 [hCPT, homo-camptothecin] | 4 NM
